Holding throughout (format): biochemical
What all share (settings): ADP-Glo SIK kinase assay
For orientation: ADP-Glo turns the ADP formed in a reaction into a luminescent signal.

Assay [1] addresses T1, SIK2 (Homo sapiens, UniProt Q9H0K1).
T1 construct: purchased ThermoFisher Scientific PV4792
Put plainly: ADP-Glo kinase assay, SIK2. The procedure: (§1) The ADP-Glo™ kinase assay is a luminescent technology assay which measures the ADP formed from a kinase reaction. […] In a second step the kinase reactions are terminated and all the remaining ATP is depleted. In a final step the ADP is converted into ATP and this newly synthesized ATP is measured by using a luciferase/luciferin reaction. The generated light is measured using an Envision plate reader, wherein the luminescent signal obtained positively correlates with the kinase activity.
(§2) 1% DMSO and 10 μM staurosporine final concentrations are used as negative and positive controls.
(§3) 2 μL enzyme-substrate mixture is added to the assay plates.
(§4) The reaction is started by adding 2 μL diluted ATP on the assay plates. Plates are centrifuged for a few seconds at 1000 rpm and gently shaken for 2 min followed by an incubation at RT for 120 min.
(§5) The reactions are stopped and the unconsumed ATP is depleted by adding 5 μL ADP-Glo Reagent (Promega, Cat #V912B) to the reaction. The plates are centrifuged for a few seconds at 1000 rpm and incubated at RT for 40 min (ATP depletion).
(§6) The ADP is converted to ATP and luciferase and luciferin is introduced to detect ATP by adding 10 μL Kinase Detection Reagent (Promega, Cat #V913B+V914B) to the reaction. The plates are centrifuged for a few seconds at 1000 rpm and incubated at RT for 30 min (ADP detection).
(§7) Luminescence is measured on an Envision plate reader (PerkinElmer Inc.).

Assay [2] concerns the target T2, SIK3 (Homo sapiens, UniProt Q9Y2K2).
T2 construct: purchased SignalChem S12-11G-100
Description: ADP-Glo kinase assay, SIK3. The procedure: as §1, §2, §3, §4, §5, §6, §7

In assay [3] the target is T3, SIK1 (Homo sapiens, UniProt P57059).
T3 construct: purchased Carna Biosciences 02-131
T3 sequence (P57059 whole entry): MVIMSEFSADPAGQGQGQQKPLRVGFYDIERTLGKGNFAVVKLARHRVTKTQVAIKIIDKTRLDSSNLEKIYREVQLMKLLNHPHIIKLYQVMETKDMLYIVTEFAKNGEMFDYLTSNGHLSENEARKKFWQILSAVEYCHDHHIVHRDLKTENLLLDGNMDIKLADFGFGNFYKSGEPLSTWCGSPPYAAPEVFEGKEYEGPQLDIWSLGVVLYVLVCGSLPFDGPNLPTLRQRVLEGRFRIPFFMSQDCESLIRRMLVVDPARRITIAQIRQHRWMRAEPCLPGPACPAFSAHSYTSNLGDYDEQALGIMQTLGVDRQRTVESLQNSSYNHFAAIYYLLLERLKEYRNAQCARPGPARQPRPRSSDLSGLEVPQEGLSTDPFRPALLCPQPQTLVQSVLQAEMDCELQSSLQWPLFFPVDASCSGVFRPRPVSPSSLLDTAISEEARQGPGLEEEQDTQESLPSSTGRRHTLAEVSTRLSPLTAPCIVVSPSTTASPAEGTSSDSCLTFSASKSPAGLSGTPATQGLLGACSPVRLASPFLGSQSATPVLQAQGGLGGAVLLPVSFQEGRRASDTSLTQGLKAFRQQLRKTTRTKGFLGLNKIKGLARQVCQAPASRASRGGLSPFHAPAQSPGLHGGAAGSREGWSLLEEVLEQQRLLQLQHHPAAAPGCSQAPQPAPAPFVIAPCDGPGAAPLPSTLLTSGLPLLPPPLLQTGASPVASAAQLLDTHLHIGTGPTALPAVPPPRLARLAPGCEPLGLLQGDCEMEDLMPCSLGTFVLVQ
Description: ADP-Glo kinase assay, SIK1. The procedure: as §1, §2, §3, §4, §5, §6, §7

The term IC50 denotes the concentration that gives 50% inhibition.

T2 sequence (Q9Y2K2 whole entry): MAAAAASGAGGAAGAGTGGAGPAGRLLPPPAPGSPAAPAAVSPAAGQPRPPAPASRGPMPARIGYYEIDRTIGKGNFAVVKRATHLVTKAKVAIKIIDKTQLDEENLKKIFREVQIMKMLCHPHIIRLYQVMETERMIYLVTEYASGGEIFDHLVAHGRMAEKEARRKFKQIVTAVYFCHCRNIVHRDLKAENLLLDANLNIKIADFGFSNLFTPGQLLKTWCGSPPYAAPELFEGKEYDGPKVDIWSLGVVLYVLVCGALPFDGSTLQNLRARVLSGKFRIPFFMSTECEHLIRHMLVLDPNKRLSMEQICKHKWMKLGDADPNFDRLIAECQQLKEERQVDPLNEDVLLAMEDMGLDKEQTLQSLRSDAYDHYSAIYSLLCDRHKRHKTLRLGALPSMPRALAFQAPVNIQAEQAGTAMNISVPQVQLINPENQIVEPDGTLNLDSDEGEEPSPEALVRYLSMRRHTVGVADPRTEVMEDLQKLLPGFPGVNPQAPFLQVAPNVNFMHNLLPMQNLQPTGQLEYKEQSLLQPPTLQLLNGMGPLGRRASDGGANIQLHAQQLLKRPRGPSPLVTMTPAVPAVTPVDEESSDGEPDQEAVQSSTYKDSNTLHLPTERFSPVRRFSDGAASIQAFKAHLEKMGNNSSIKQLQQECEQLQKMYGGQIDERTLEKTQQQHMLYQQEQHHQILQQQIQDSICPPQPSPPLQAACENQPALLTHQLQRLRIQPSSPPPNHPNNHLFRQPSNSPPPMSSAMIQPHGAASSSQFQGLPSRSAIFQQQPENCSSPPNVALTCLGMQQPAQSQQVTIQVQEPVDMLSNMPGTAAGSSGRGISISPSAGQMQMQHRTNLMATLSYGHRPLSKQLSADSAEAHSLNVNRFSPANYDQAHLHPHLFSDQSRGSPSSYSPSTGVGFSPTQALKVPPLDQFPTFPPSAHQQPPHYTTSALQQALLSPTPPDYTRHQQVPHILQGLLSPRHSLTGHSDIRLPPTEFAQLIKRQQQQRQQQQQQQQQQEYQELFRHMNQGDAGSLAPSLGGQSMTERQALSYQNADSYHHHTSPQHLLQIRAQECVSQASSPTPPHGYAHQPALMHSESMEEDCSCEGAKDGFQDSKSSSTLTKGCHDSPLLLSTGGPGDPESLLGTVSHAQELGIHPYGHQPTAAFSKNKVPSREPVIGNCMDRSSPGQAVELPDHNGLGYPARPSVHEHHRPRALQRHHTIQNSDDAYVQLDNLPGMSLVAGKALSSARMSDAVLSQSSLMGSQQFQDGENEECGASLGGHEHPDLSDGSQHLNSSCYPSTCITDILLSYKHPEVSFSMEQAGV
T1 sequence (Q9H0K1 whole entry): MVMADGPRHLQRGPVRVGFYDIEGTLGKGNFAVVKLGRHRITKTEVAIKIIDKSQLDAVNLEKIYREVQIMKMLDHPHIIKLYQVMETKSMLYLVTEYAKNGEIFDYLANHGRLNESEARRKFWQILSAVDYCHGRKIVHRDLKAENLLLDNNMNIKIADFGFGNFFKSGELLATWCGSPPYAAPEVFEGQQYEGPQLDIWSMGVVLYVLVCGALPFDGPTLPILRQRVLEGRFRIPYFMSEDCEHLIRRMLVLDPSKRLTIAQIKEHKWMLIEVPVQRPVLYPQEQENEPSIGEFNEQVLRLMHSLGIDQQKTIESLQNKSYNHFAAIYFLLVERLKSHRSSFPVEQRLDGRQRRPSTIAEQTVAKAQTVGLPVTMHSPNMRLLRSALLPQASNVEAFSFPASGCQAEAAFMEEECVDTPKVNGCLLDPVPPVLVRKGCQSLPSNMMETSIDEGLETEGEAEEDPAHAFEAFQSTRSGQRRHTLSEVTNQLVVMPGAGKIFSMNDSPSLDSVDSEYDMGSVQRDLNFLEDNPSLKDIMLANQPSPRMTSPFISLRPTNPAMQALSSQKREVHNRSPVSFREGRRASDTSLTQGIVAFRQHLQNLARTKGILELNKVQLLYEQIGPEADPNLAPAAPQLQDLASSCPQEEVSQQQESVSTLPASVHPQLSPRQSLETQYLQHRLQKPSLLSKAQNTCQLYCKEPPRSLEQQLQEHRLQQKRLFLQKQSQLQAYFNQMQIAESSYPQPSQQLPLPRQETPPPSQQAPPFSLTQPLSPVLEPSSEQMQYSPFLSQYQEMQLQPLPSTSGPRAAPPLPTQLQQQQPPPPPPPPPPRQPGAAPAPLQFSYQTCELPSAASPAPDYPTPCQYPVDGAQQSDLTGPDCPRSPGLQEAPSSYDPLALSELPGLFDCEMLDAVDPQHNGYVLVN

As to `COC(=O)N1CCCCC1COc1ccn2c(-c3cc(OC)c(C(=O)NC4CC4)c(OC(F)F)c3)cnc2c1` (stereo not drawn) [Cpd 130, methyl 2-[[3-[4-(cyclopropylcarbamoyl)-3-(difluoromethoxy)-5-methoxy-phenyl]imidazo[1,2-a]pyridin-7-yl]oxymethyl]piperidine-1-carboxylate], the 50% inhibitory concentration (IC50) in assay [1], in assay [2] and in assay [3] was 0.01 to 10 nM in each case.

`COc1cc(-c2cnc3cc(OC4CCOCC4)ccn23)cc(OC)c1C(=O)NCC(F)(F)F` [Cpd 4, 2,6-dimethoxy-4-(7-tetrahydropyran-4-yloxyimidazo[1,2-a]pyridin-3-yl)-N-(2,2,2-trifluoroethyl) benzamide]: the half-inhibitory concentration (IC50) in assay [1] is 100 to 500 nM; in assay [2], 10 to 100 nM; in assay [3], > 500 nM.

For `COc1cc(-c2cnc3cc(OCC4(N)CCOC4)ccn23)cc(OC(F)F)c1C(=O)NC1CC1` (stereo not drawn) [compound 176, 4-[7-[(3-aminotetrahydrofuran-3-yl)methoxy]imidazo[1,2-a]pyridin-3-yl]-N-cyclopropyl-2-(difluoromethoxy)-6-methoxy-benzamide], the IC50 was 0.01 to 10 nM in assay [1], 0.01 to 10 nM in assay [2] and 10 to 100 nM in assay [3].

In the case of `COc1cc(-c2cnc3cc(OCC4COCCN4C)ccn23)cc(OC(F)F)c1C(=O)NC1CC1` (stereo not drawn) [compound 201, N-cyclopropyl-2-(difluoromethoxy)-6-methoxy-4-[7-[(4-methylmorpholin-3-yl)methoxy]imidazo[1,2-a]pyridin-3-yl]benzamide], the 50% inhibitory concentration (IC50) was in the range of 10 to 100 nM in assay [1], 0.01 to 10 nM in assay [2] and 10 to 100 nM in assay [3].

On to `CNC1CC(Oc2ccn3c(-c4cc(OC)c(C(=O)NC5CC5)c(OC(F)F)c4)cnc3c2)C1` (stereo not drawn) [compound 161, N-cyclopropyl-2-(difluoromethoxy)-6-methoxy-4-[7-[3-(methylamino)cyclobutoxy]imidazo[1,2-a]pyridin-3-yl]benzamide], for which the half-maximal inhibitory concentration (IC50) is 0.01 to 10 nM in assay [1], 0.01 to 10 nM in assay [2] and 10 to 100 nM in assay [3].

Consider `COc1cc(-c2cnc3cc(OC4CC5(COC5)C4)ccn23)cc(OC(F)F)c1C(=O)NC1CC1` [compound 162, N-cyclopropyl-2-(difluoromethoxy)-6-methoxy-4-[7-(2-oxaspiro[3.3]heptan-6-yloxy)imidazo[1,2-a]pyridin-3-yl]benzamide], for which the figures for the half-maximal inhibitory concentration (IC50) in assay [1], in assay [2] and in assay [3] were 10 to 100 nM, 0.01 to 10 nM and 10 to 100 nM, respectively.

Regarding `COc1cc(-c2cnc3cc(OCC4CCC4)ccn23)cc(OC(F)F)c1C(=O)NC1CC1` [Cpd 71, 4-[7-(cyclobutylmethoxy)imidazo[1,2-a]pyridin-3-yl]-N-cyclopropyl-2-(difluoromethoxy)-6-methoxy-benzamide], the IC50 in assay [1], in assay [2] and in assay [3] was 0.01 to 10 nM each time.

As to `COc1cc(-c2cnc3cc(OCCC4CC(F)(F)C4)ccn23)cc(OC(F)F)c1C(=O)NC1CC1` [compound 76, N-cyclopropyl-4-[7-[2-(3,3-difluorocyclobutyl)ethoxy]imidazo[1,2-a]pyridin-3-yl]-2-(difluoromethoxy)-6-methoxy-benzamide], the 50% inhibitory concentration (IC50) in assay [1] lay within 0.01 to 10 nM; in assay [2], 0.01 to 10 nM; in assay [3], 10 to 100 nM.

`COc1cc(-c2cnc3cc(OCC4(N)CCC4)ccn23)cc(OC(F)F)c1C(=O)NC1CC1` [compound 174, 4-[7-[(1-aminocyclobutyl)methoxy]imidazo[1,2-a]pyridin-3-yl]-N-cyclopropyl-2-(difluoromethoxy)-6-methoxy-benzamide]: the IC50 fell in the range of 0.01 to 10 nM in assay [1], 0.01 to 10 nM in assay [2] and 100 to 500 nM in assay [3].

With `COc1cc(-c2cnc3cc(OCCC4CCCCN4C)ccn23)cc(OC(F)F)c1C(=O)NC1CC1` (stereo not drawn) [compound 24, N-cyclopropyl-2-(difluoromethoxy)-6-methoxy-4-[7-[2-(1-methyl-2-piperidyl)ethoxy]imidazo [1,2-a]pyridin-3-yl]benzamide], the concentration for half-maximal inhibition (IC50) in assay [1], in assay [2] and in assay [3] was 0.01 to 10 nM each time.

For the molecule `COc1cc(-c2cnc3cc(OCC4(F)CN(C(=O)OC(C)(C)C)C4)ccn23)cc(OC(F)F)c1C(=O)NC1CC1` [Cpd 187, tert-butyl 3-[[3-[4-(cyclopropylcarbamoyl)-3-(difluoromethoxy)-5-methoxy-phenyl]imidazo[1,2-a]pyridin-7-yl]oxymethyl]-3-fluoro-azetidine-1-carboxylate], the values for the IC50 in assay [1], in assay [2] and in assay [3] were 0.01 to 10 nM, 0.01 to 10 nM and 10 to 100 nM, respectively.

As to `COc1cc(-c2cnc3cc(OCCN4CCCC(F)(F)C4)ccn23)cc(OC(F)F)c1C(=O)NC1CC1` [compound 211, N-cyclopropyl-2-(difluoromethoxy)-4-[7-[2-(3,3-difluoro-1-piperidyl)ethoxy]imidazo [1,2-a]pyridin-3-yl]-6-methoxy-benzamide], the half-inhibitory concentration (IC50) in assay [1], in assay [2] and in assay [3] was 0.01 to 10 nM in each case.

Take `COc1cc(-c2cnc3cc(OCCN4CC(F)(F)C4)ccn23)cc(OC(F)F)c1C(=O)NC1CC1` [compound 186, N-cyclopropyl-4-[7-[2-(3,3-difluoroazetidin-1-yl)ethoxy]imidazo[1,2-a]pyridin-3-yl]-2-(difluoromethoxy)-6-methoxy-benzamide]: the IC50 in assay [1] lay in the range of 0.01 to 10 nM; in assay [2] it was 0.01 to 10 nM; in assay [3], 10 to 100 nM.

Consider `COc1cc(-c2cnc3cc(OC[C@H]4CCCN(CCC#N)C4)ccn23)cc(OC(F)F)c1C(=O)NC1CC1` [compound 351, 4-[7-[[(3S)-1-(2-cyanoethyl)-3-piperidyl]methoxy]imidazo [1,2-a]pyridin-3-yl]-N-cyclopropyl-2-(difluoromethoxy)-6-methoxy-benzamide], for which the IC50 in assay [1], in assay [2] and in assay [3] was 0.01 to 10 nM throughout.

`COc1cc(-c2cnc3cc(OC(C)CN4CCOCC4)ccn23)cc(OC(F)F)c1C(=O)NC1CC1` (stereo not drawn) [compound 12, N-cyclopropyl-2-(difluoromethoxy)-6-methoxy-4-[7-(1-methyl-2-morpholino-ethoxy)imidazo[1,2-a]pyridin-3-yl]benzamide]: the 50% inhibitory concentration (IC50) is 100 to 500 nM in assay [1], 10 to 100 nM in assay [2] and > 500 nM in assay [3].

As for `COc1cc(-c2cnc3cc(OCCN4CC(C)OC(C)C4)ccn23)cc(OC(F)F)c1C(=O)NC1CC1` (stereo not drawn) [Cpd 177, N-cyclopropyl-2-(difluoromethoxy)-4-[7-[2-(2,6-dimethylmorpholin-4-yl)ethoxy]imidazo [1,2-a]pyridin-3-yl]-6-methoxy-benzamide], the 50% inhibitory concentration (IC50) fell in the range of 0.01 to 10 nM in assay [1], 0.01 to 10 nM in assay [2] and 10 to 100 nM in assay [3].

On to `COc1cc(-c2cnc3cc(OCCCN4CCc5ncncc5C4)ccn23)cc(OC(F)F)c1C(=O)NC1CC1` [compound 304, N-cyclopropyl-2-(difluoromethoxy)-4-[7-[3-(7,8-dihydro-5H-pyrido[4,3-d]pyrimidin-6-yl)propoxy]imidazo[1,2-a]pyridin-3-yl]-6-methoxy-benzamide], for which the values for the half-maximal inhibitory concentration (IC50) in assay [1], in assay [2] and in assay [3] were 0.01 to 10 nM, 0.01 to 10 nM and 10 to 100 nM, respectively.

For the molecule `CCOCCOc1ccn2c(-c3cc(OC)c(C(=O)NC4CC4)c(OC(F)F)c3)cnc2c1` [compound 72, N-cyclopropyl-2-(difluoromethoxy)-4-[7-(2-ethoxyethoxy)imidazo [1,2-a]pyridin-3-yl]-6-methoxy-benzamide], the IC50 in assay [1] was in the range of 0.01 to 10 nM; in assay [2], 0.01 to 10 nM; in assay [3], 10 to 100 nM.

In the case of `COc1cc(-c2cnc3cc(OC4CCC(F)(F)C4)ccn23)cc(OC(F)F)c1C(=O)NC1CC1` (stereo not drawn) [compound 62, N-cyclopropyl-4-[7-(3,3-difluorocyclopentoxy)imidazo[1,2-a]pyridin-3-yl]-2-(difluoromethoxy)-6-methoxy-benzamide], the figures for the IC50 in assay [1], in assay [2] and in assay [3] were 10 to 100 nM, 0.01 to 10 nM and 10 to 100 nM, respectively.

Turning to `COc1cc(-c2cnc3cc(OCC4CCCN4C)ccn23)cc(OC(F)F)c1C(=O)NC1CC1` (stereo not drawn) [compound 28, N-cyclopropyl-2-(difluoromethoxy)-6-methoxy-4-[7-[(1-methylpyrrolidin-2-yl)methoxy]imidazo[1,2-a]pyridin-3-yl]benzamide], the IC50 in assay [1] was 0.01 to 10 nM; in assay [2], 0.01 to 10 nM; in assay [3], 100 to 500 nM.

Regarding `COc1cc(-c2cnc3cc(OCc4cocn4)ccn23)cc(OC(F)F)c1C(=O)NC1CC1` [compound 60, N-cyclopropyl-2-(difluoromethoxy)-6-methoxy-4-[7-(oxazol-4-ylmethoxy)imidazo[1,2-a]pyridin-3-yl]benzamide], the IC50 in assay [1] fell in the range of 0.01 to 10 nM; in assay [2] it was 0.01 to 10 nM; in assay [3], 10 to 100 nM.

Take `COc1cc(-c2cnc3cc(OC4COC4)ccn23)cc(OC(F)F)c1C(=O)NC1CC1` [compound 152, N-cyclopropyl-2-(difluoromethoxy)-6-methoxy-4-[7-(oxetan-3-yloxy)imidazo[1,2-a]pyridin-3-yl]benzamide]: the half-inhibitory concentration (IC50) was in the range of 10 to 100 nM in assay [1], 0.01 to 10 nM in assay [2] and 10 to 100 nM in assay [3].

Values taken from patent US12264156B2, “Compounds and pharmaceutical compositions thereof for the treatment of diseases” (GALAPAGOS NV, priority 2018, dated 2025).
